How the values were obtained:
[1] = Hygroscopicity of the crystalline form; format: physicochemical; conditions: solid crystalline form
[2] = Thermodynamic stability of crystal forms; conditions: among free acid crystal forms of Compound II

## CC[C@@H](Oc1cccc(-n2c(C)c(C(=O)c3ccc(OC)cc3)c3ccc(OC(F)(F)F)cc32)c1)C(=O)O [crystalline dihydrate, (2R)-2-{3-[3-(4-methoxybenzoyl)-2-methyl-6-(trifluoromethoxy)-1H-indol-1-yl]phenoxy}butanoic acid]
[1]
  hygroscopicity: non-hygroscopic

## CC[C@@H](Oc1cccc(Cn2c(C)c(C(=O)c3ccc(Cl)cc3)c3ccc(OC(F)(F)F)cc32)c1)C(=O)O [Acid Form C, (2R)-2-{3-[[3-(4-chlorobenzoyl)-2-methyl-6-(trifluoromethoxy)-1H-indol-1-yl]methyl]phenoxy}butyric acid]
[2]
  thermodynamic stability of crystal form: thermodynamically stable
[2]; listed as Form C free acid
  thermodynamic stability of crystal form: most thermodynamically stable acid form

Reference: US7683092B2, “Crystalline forms of antidiabetic compounds” (Merck Sharp & Dohme Corp., priority 2005, dated 2010)
